pKi: −log10 of the molar value. Values joined by “and” are separate entries in the source; they are usually repeats but may differ in a detail not shown here. Identical values can stand only once. Active and inactive are the calls of the source. The calls are words filed in the database; no cut-off is given here.
How the values were obtained:
Mus musculus [1] = experiment: Anticonvulsant activity in Kunming mouse assessed as MES-induced hind limb extension at 100 mg/kg, ip administered 0. 5 to 2 hrs before MES stimulation; assay type: functional, organism-based
Mus musculus [2] = experiment: Potency index, ratio of ED50 of carbamazepine to ED50 of compound anticonvulsant activity in ip dosed Kunming mouse assessed as MES-induced hind limb extension administered 0.5 hrs before MES stimulation; assay type: functional
Mus musculus [3] = experiment: Potency index, ratio of ED50 of valproic acid to ED50 of compound anticonvulsant activity in ip dosed Kunming mouse assessed as MES-induced hind limb extension administered 0.5 hrs before MES stimulation; assay type: functional
Mus musculus [4] = experiment: Anticonvulsant activity in Kunming mouse assessed as reduction in ScPTZ-induced clonic seizure at 100 mg/kg, ip administered 0.5 hrs before ScPTZ stimulation relative to control; assay type: functional; parameters: scale not given: the % may be the effect or the level left
Mus musculus [5] = experiment: Anticonvulsant activity in Kunming mouse assessed as reduction in ScPTZ-induced clonic seizure at 300 mg/kg, ip administered 0.5 hrs before ScPTZ stimulation relative to control; assay type: functional; parameters: scale not given: the % may be the effect or the level left
Mus musculus [6] = experiment: Anticonvulsant activity in Kunming mouse assessed as reduction in ScPTZ-induced seizure at 300 mg/kg, ip administered 0.25 to 2 hrs before ScPTZ stimulation relative to control; assay type: functional; parameters: scale not given: the % may be the effect or the level left
[7] = Half life in Sprague-Dawley rat at 20 mg/kg, iv measured upto 480 mins by LC-MS/MS analysis; assay type: ADME, organism-based; details: in vivo
[8] = Tmax in Sprague-Dawley rat at 50 mg/kg, po measured upto 480 mins by LC-MS/MS analysis; assay type: ADME, organism-based; details: in vivo
Mus musculus [9] = experiment: Anticonvulsant activity in Kunming mouse assessed as MES-induced hind limb extension at 100 mg/kg, ip administered 3 hrs before MES stimulation; assay type: functional, organism-based
Mus musculus [10] = experiment: Anticonvulsant activity in Kunming mouse assessed as reduction in ScPTZ-induced seizure at 100 mg/kg, ip administered 0.5 hrs before ScPTZ stimulation relative to control; assay type: functional; parameters: scale not given: the % may be the effect or the level left
Mus musculus [11] = experiment: Anticonvulsant activity in Kunming mouse assessed as MES-induced hind limb extension at 100 mg/kg, ip administered 0. 5 hrs before MES stimulation relative to control; assay type: functional
Mus musculus [12] = experiment: Anticonvulsant activity in Kunming mouse assessed as reduction in Sc3-MP-induced tonic seizure rate at 300 mg/kg, ip administered 0.5 hrs before Sc3-MP stimulation relative to control; assay type: functional; parameters: scale not given: the % may be the effect or the level left
[13] = Cmax in Sprague-Dawley rat at 20 mg/kg, po measured upto 480 mins by LC-MS/MS analysis; assay type: ADME, organism-based; parameters: dose 20 mg/kg, route oral; details: in vivo
[14] = Noncompetitive inhibition of human LDH1 at 0.5 mM using sodium pyruvate as substrate by UV-VIS spectrophotometry method based Lineweaver-Burk plot analysis
[15] = Neurotoxicity against Kunming mouse assessed as time remained in rod at 100 mg/kg, ip administered 0.5 to 2 hrs by rotarod test; assay type: toxicity, organism-based; details: in vivo
Mus musculus [16] = experiment: Anticonvulsant activity in Kunming mouse assessed as reduction in Sc3-MP-induced seizure ip dosed measured at 0.5 hrs before Sc3-MP stimulation; assay type: functional
[17] = Half life in Sprague-Dawley rat at 100 mg/kg, po measured upto 480 mins by LC-MS/MS analysis; assay type: ADME, organism-based; details: in vivo
Homo sapiens = species: Homo sapiens; experiment: Inhibition of human LDH1 at 0.5 mM using sodium pyruvate as substrate measured for 60 sec for every 5 mins by LC/MS-MS analysis
Mus musculus [18] = experiment: Anticonvulsant activity in Kunming mouse assessed as reduction in ScPTZ-induced tonic seizure rate at 100 mg/kg, ip administered 0.5 hrs before ScPTZ stimulation relative to control; assay type: functional; parameters: scale not given: the % may be the effect or the level left
[19] = Tmax in Sprague-Dawley rat kidney at 50 mg/kg, po; assay type: ADME, organism-based
[20] = Drug uptake in Sprague-Dawley rat brain at 50 mg/kg, po; assay type: ADME, organism-based; details: in vivo
[21] = Drug uptake in Sprague-Dawley rat kidney at 50 mg/kg, po; assay type: ADME, organism-based; details: in vivo
[22] = Tmax in Sprague-Dawley rat heart at 50 mg/kg, po; assay type: ADME, organism-based
[23] = Drug metabolism in Sprague-Dawley rat assessed as retention time by HPLC/MS analysis; assay type: ADME
[24] = Drug uptake in Sprague-Dawley rat heart at 50 mg/kg, po; assay type: ADME, organism-based; details: in vivo
[25] = Tmax in Sprague-Dawley rat brain at 50 mg/kg, po; assay type: ADME, organism-based
[26] = Drug uptake in Sprague-Dawley rat lungs at 50 mg/kg, po; assay type: ADME, organism-based, Lung; details: in vivo

COc1cc(OC)c(OC)cc1/C=C/COC(=O)/C=C/c1cc(OC)c(OC)c(OC)c1OC
Activity (Mus musculus [1]): Active | Ratio ED50 (Mus musculus [2]): 1.17 | Ratio ED50 (Mus musculus [3]): 23.1 | Activity (Mus musculus [4]): 100% | Activity (Mus musculus [5]): 100% | Activity (Mus musculus [6]): 50% | half-life [7]: 19.7 min | Tmax [8]: 35.6 min | Activity (Mus musculus [9]): Active | Activity (Mus musculus [10]): 100% | Activity (Mus musculus [11]): 100% | Activity (Mus musculus [12]): 50% | Cmax [13]: 880 ng/mL | pKi [14]: 5.75 | Activity [15]: Non-Toxic | ED50 (Mus musculus [16]): > 200 mg/kg and > 422 µmol/kg | half-life [17]: 57 min | inhibition (Homo sapiens): 18% | Activity (Mus musculus [18]): 75%

COc1cc(OC)c(OC)cc1/C=C/COC(=O)/C=C/c1c(OC)cc(OC)c(OC)c1OC
Tmax [19]: 60 min | Activity (Mus musculus [1]): Active | Activity (Mus musculus [4]): 100% | Activity (Mus musculus [5]): 100% | Activity (Mus musculus [6]): 50% | half-life [7]: 22.8 min | Tmax [8]: 38.7 min | Drug uptake [20]: Active | Drug uptake [21]: Active | Tmax [22]: 60 min | Retention_time [23]: 40.6 min | Activity (Mus musculus [12]): 50% | Cmax [13]: 980 ng/mL | Activity [15]: Non-Toxic | ED50 (Mus musculus [16]): 203 mg/kg and 428 µmol/kg | half-life [17]: 58.5 min | Drug uptake [24]: Active | inhibition (Homo sapiens): 21% | Tmax [25]: 60 min | Drug uptake [26]: Active | Activity (Mus musculus [18]): 25%
